# Measured values reported in US20210205638A1, “PARATHYROID HORMONE AND REGENERATION OF DEGENERATIVE DISCS DISEASE” (THE JOHNS HOPKINS UNIVERSITY, priority 2017, published 2021).
# How the values were obtained:
# NP cells [1] = assay: iPTH in PTH1R KO and wild-type mice: qRT-PCR of CCN2 and ACAN; type: in vivo, mouse
# Procedure: The 11 month-old PTH1R^+/+ and PTH1R^−/− male mice were randomized into four groups: PTH1R^+/++PTH (1-34), PTH1R^+/++Vehicle, PTH1R^−/−+PTH (1-34) and PTH1R^−/−+Vehicle groups (n=8 per group). The 11 month-olds IFT88^+/+ and IFT88^−/− male mice were randomized into four groups: IFT88^+/++PTH (1-34), IFT88^+/++Vehicle, IFT88^−/−+PTH (1-34) and IFT88^−/−+Vehicle groups (n=8 per group). Mice were subcutaneously injected with either PTH (1-34) or vehicle (1 mM acetic acid in phosphate buffered saline (PBS) with equivalent volume of PTH) daily, 5 days per week, and all mice were sacrificed 4 weeks after treatment with PTH (1-34)/vehicle.
# After protein extraction, specimen from the same group of mice were prepared for RNA extraction using TRIzol reagent (Invitogen) according to the manufacturer's instruction. The purity of RNA was tested by measuring the absorbance at 260 and 280 nm. For qRT-PCR, two micrograms of RNA was reverse transcribed into cDNA using the SuperScript firststrand synthesis system (Invitrogen) and analyzed with SYBR Green-Master Mix (Qiagen) in the thermal cycler with two sets of primers specific for each target gene. Relative expression was calculated for each gene by the 2^−ΔΔCT method, with GAPDH for normalization.
# TGF-β = assay: ELISA of total and active TGF-β in NP tissue of aged mice; type: in vivo, mouse; details: 18-month-old mice
# Procedure: For cAMP assays, confluent cells were grown in 35-mm six-well plates starved overnight by incubation in serum-free α-MEM at 37° C. The cells were then treated with 100 nM human of human PTH (1-34; Bachem Calif., Inc.) for 1 h. Cellular cAMP was extracted and the concentration measured with the Biotrak enzyme immunoassay system (GE Healthare, Inc., Princeton, HJ). We determined the concentration of total and active TGF-β in the NP tissue using the ELISA Development Kit (R&D Systems) according to the manufacturer's instructions.
# NP cells [2] = assay: Western blot of pCREB in cultured NP cells; type: cell-based, mouse
# Procedure: Green fluorescent protein (GFP) labeled NP cells of notochordal origin were isolated from 15-day old Noto^Cre/+::ROSA26-lacZ^flox/flox male mice as previously described. The NP cells from 15-day old PTH1R^+/+ and PTH1R^−/−, IFT88^+/+ and IFT88^−/− male mice. Briefly, the cells were isolated from the NP region of IVDs in the spinal column from mid thoracic to lower lumbar region and digested initially with TrypLE Express (Gibco) for 30 minutes on shaker, followed by 0.25 mg/ml Collagense-P (Roche) for another […] at 37° C. The digested cells were washed twice with PBS, and cultured in α-MEM (Gibco) supplemented with 10% fetal calf serum (Atlanta Biologicals), and 1% penicillin—streptomycin (Mediatech) to 80-90% confluence at 37° C., 5% CO2 and 5% O2.
# Western blot analyses were conducted on the protein lysates from in vitro cultured NP cells or NP tissues from mice at specific time points after PTH (1-34) treatment and human at different ages with lumbar disc degeneration. The protein extract was centrifuged, the concentration of supernatant evaluated by DC protein assay (Bio-Rad Laboratories), and then separated by SDS-PAGE and blotted on a polyvinylidene fluoride membrane (Bio-Rad Laboratories). Following incubation in specific antibodies, we detected proteins using an enhanced chemiluminescence kit (Amersham Biosciences). […]
# αvβ integrins = assay: Immunostaining of αvβ integrins in IVD sections of aged mice; type: in vivo, mouse; details: 18-month old mice; only αvβ6 among αvβ3, αvβ5, αvβ6, β8
# Procedure: For immunocytochemical staining, we incubated GFP labeled NP cells co-stained with primary antibody to rabbit PTH1R PRB-635P (Covance, 1:100) for 1 h and subsequently stained with secondary antibodies conjugated with fluorescence at room temperature. At the time of euthanasia, we dissected and fixed the lumbar vertebral spine in 10% buffered formalin for 48 h, decalcified them in 10% EDTA (pH 7.4) for 14-21 days and embedded them in paraffin or optimal cutting temperature (OCT) compound (Sakura Finetek). Fourmicrometer-thick coronal-oriented sections of the L1-L6 spine were processed for safranin O and fast green staining. Sections for immunostaining was performed using a standard protocol and incubated with primary antibodies to rabbit ACAN (Abcam, 1:100), CCN2 (Abcam, 1:100), integrin β8 (Abcam, 1:200), pCREB (Abcam, 1:100) and PTH1R PRB-635P (Covance, 1:100), mouse pSmad2/3 (Santa Cruz, 1:100), integrin αvβ6 (Millipore, 1:100), integrin αvβ3 (Bioss, 1:100,), integrin αvβ5 (Bioss, 1:100) at 4° C. overnight. For immunohistochemical staining, a horse radish peroxidase-streptavidin detection system (Dako) was subsequently used to detect the immunoactivity, followed by counterstaining with hematoxylin (Sigma-Aldrich). For immunofluorescent assay, the slides were incubated with secondary antibodies conjugated with fluorescence at room temperature for 1 h while avoiding light. […]
# integrin β6 = assay: Western blot of integrin β6 in NP cells at time points after PTH; type: cell-based, mouse; details: PTH1-34 100 nM, time dependent manner
# Procedure: Western blot analyses were conducted on the protein lysates from in vitro cultured NP cells or NP tissues from mice at specific time points after PTH (1-34) treatment and human at different ages with lumbar disc degeneration. The protein extract was centrifuged, the concentration of supernatant evaluated by DC protein assay (Bio-Rad Laboratories), and then separated by SDS-PAGE and blotted on a polyvinylidene fluoride membrane (Bio-Rad Laboratories). Following incubation in specific antibodies, we detected proteins using an enhanced chemiluminescence kit (Amersham Biosciences). We used specific antibodies recognizing rabbit CTGF (CCN2) (Abcam, 1:1000), Aggrecan (ACAN) (Abcan, 1:1000), p-Smad2 (Cell Signaling Technology Inc., 1:1000), Smad2 (Cell Signaling Technology Inc., 1:1000), GAPDH (Cell Signaling Technology Inc., 1:1000), CREB (Abcam, 1:2500), pCREB (Abcam, 1:2500), PTH1R PRB-635P (Covance, 1:100), PTH1R PRB-640P (Covance, 1:500) and goat integrin β6 (Santa Cruz, 1:500) to examine the protein concentrations in the lysates. Co-immunoprecipitation analyses were conducted on the nuclear and cytoplasmic protein extraction using NE-PER Nuclear and Cytoplasmic Extraction Kit (Pierce Thermo Scientific, 78833) from in vitro cultured NP cells treated with PTH (1-34) or vehicle.
smiles,measurement,setting,value
"CC[C@H](C)[C@H](NC(=O)[C@H](CCC(=O)O)NC(=O)[C@H](CO)NC(=O)[C@@H](NC(=O)[C@@H](N)CO)C(C)C)C(=O)N[C@@H](CCC(N)=O)C(=O)N[C@@H](CC(C)C)C(=O)N[C@@H](CCSC)C(=O)N[C@@H](Cc1cnc[nH]1)C(=O)N[C@@H](CC(N)=O)C(=O)N[C@@H](CC(C)C)C(=O)NCC(=O)N[C@@H](CCCCN)C(=O)N[C@@H](Cc1cnc[nH]1)C(=O)N[C@@H](CC(C)C)C(=O)N[C@@H](CC(N)=O)C(=O)N[C@@H](CO)C(=O)N[C@@H](CCSC)C(=O)N[C@@H](CCC(=O)O)C(=O)N[C@@H](CCCN=C(N)N)C(=O)N[C@H](C(=O)N[C@@H](CCC(=O)O)C(=O)N[C@@H](Cc1c[nH]c2ccccc12)C(=O)N[C@@H](CC(C)C)C(=O)N[C@@H](CCCN=C(N)N)C(=O)N[C@@H](CCCCN)C(=O)N[C@@H](CCCCN)C(=O)N[C@@H](CC(C)C)C(=O)N[C@@H](CCC(N)=O)C(=O)N[C@@H](CC(=O)O)C(=O)N[C@H](C(=O)N[C@@H](Cc1cnc[nH]1)C(=O)N[C@@H](CC(N)=O)C(=O)N[C@@H](Cc1ccccc1)C(=O)O)C(C)C)C(C)C [PTH (1-34), teriparatide]",mRNA expression of ACAN,NP cells [1]; NP cells of wild-type mice,significantly increased
same,mRNA expression of CCN2,NP cells [1]; NP cells of wild-type mice,significantly increased
same,PTH increase of mRNA expression of ACAN,NP cells [1]; PTH1R KO mice,blunted
same,PTH increase of mRNA expression of CCN2,NP cells [1]; PTH1R KO mice,blunted
same,level of active TGF-β in IVDs,TGF-β,increased
same,total TGF-β level,TGF-β,not changed
same,phosphorylation of CREB (Western blot),NP cells [2]; at 30 min,induced phosphorylation of CREB
same,PTH-enhanced phosphorylation of CREB,NP cells [2]; knockdown of pallidin with siRNA,blocked
same,level of αvβ6 integrin,αvβ integrins,significantly increased
same,protein level of β6 integrin,integrin β6,significantly stimulated
